Values quoted from earlier work as cited in patent publication US6106863A, “Sustained-release metal valproate tablets” (priority 1996, dated 2000).

Columns and labels:
[1] = in vivo

CCCC(CCC)C(=O)[O-].[Na+] [Sodium valproate]
water solubility (in words): water-soluble
biological half-life (in words) [1]: short biological half-life
effective blood concentration [1]: 50 to 100 µg/mL
